{"source": "patent US20250333701A1", "about": "“COMPOSITIONS AND METHODS FOR GENERATING HEMATOPOIETIC STEM CELLS (HSCS)” (Washington University, priority 2019, published 2025)", "assay_type_in_all_cases": "cell-based, human", "key": {"[1]": {"tested_on": "KDR+ CXCR4+ mesoderm", "experiment": "Specification of definitive hemogenic endothelium (HE) and hematopoietic potential from isolated day 3 WNTd KDR+ CXCR4+ mesoderm", "conditions": "for hematopoietic potential of the CD34+ HE specified: retinol (5 μM) added on day 3 to isolated KDR+ CXCR4+ mesoderm", "description": "The hESC lines H1 and H9, and human iPSC1 were maintained on irradiated mouse embryonic fibroblasts in hESC media as described previously (Sturgeon, C. M., et al. Nat Biotechnol 32, 554-561, (2014); Thomson, J. A. et al. Science 282, 1145-1147 (1998); Dege, C. et al., J Vis Exp, (2017)). For differentiation, hPSC were cultured on Matrigel-coated plasticware (BD Biosciences, Bedford, MA) for 24 hours, followed by embryoid body (EB) generation, as described previously (Kennedy, M. et al. Cell Rep 2, 1722-1735, (2012); Dege, C. et al. J Vis Exp, (2017); Ditadi, A. et al. Methods 101, 65-72, (2016)). Briefly, hPSCs were dissociated with brief trypsin-EDTA (0.05%) treatment, followed by scraping. Embryoid body (EB) aggregates were resuspended in SFD media34 supplemented with L-glutamine (2 mM), ascorbic acid (1 mM), monothioglycerol (MTG, 4×10^−4 M; Sigma), transferrin (150 μg/mL), and BMP-4 (10 ng/mL). 24 hours later, bFGF (5 ng/mL) was added. On the second day of differentiation, ACTIVIN A, SB-431542 (6 μM), CHIR99021 (3 μM), and/or IWP2 (3 μM) were added. On the third day, EBs were changed to StemPro-34 media supplemented as above, with bFGF (5 ng/mL) and VEGF (15 ng/mL) and treated with either 10 μM of the pan-ALDH inhibitor DEAB (4-Diethylaminobenzaldehyde, Sigma #D86256; “RA-independent”) or 5 μM retinol (ROH, Sigma #R7632; “RA-dependent”). On day 6, IL-6 (10 ng/mL), IGF-1 (25 ng/mL), IL-11 (5 ng/mL), SCF (50 ng/mL), EPO (2 U/mL final) with DEAB or ROH were added. HE was FACS-isolated for terminal assays on day 8 (DEAB) or day 10 (ROH). All differentiation cultures were maintained at 37° C. All embryoid bodies and mesodermal aggregates were cultured in a 5% CO2/5% 02/90% N2 environment. All recombinant factors are human and were purchased from Biotechne. Analysis of hematopoietic colony potential via Methocult (Stem Cell Technologies) was performed as described previously (Ditadi, A. et al. Nat Cell Biol 17, 580-591, (2015); Kennedy, M. et al. Cell Rep 2, 1722-1735, (2012)).\nFor isolation of mesodermal populations, day 3 of differentiation WNTd KDR+ CD235a^negCXCR4+/neg and WNTi KDR+ CD235a+ cells were FACS-isolated and reaggregated at 250,000 cells/mL in day 3 media, as above. Cultures were plated in 250 μL volumes in a 24 well low-adherence culture plate, and grown overnight in a 37° C. incubator, with a 5% CO2/5% 02/90% N2 environment. As specified, RA was manipulated with either 5 μM ROH or ATRA (Sigma #R2625), or 10 μM DEAB. On day 4, an additional 1 mL of RA-supplemented day 3 media was added to reaggregates. On day 6 of differentiation, CD34+ and CD43+ cells from WNTi cultures were FACS-isolated for terminal assays. WNTd cultures were fed as normally, but without additional RA manipulation. CD34+ cells were sorted from all WNTd populations on day 8 of differentiation.\nCD34+CD43^neg hemogenic endothelium was isolated by FACS and allowed to undergo the endothelial-to-hematopoietic transition as described previously (Ditadi, A. et al., Nat Cell Biol 17, 580-591, (2015); Ditadi, A. et al., Methods 101, 65-72, (2016)). Briefly, cells (CD34+CD43^neg or CD34+CD43^negCD73^negCXCR4neg cells) were aggregated overnight at a density of 2×10^5 cells/mL in StemPro-34 media supplemented with L-glutamine (2 mM), ascorbic acid (1 mM), monothioglycerol (MTG, 4×10^−4 M; Sigma-Aldrich), holo-transferrin (150 μg/mL), TPO (30 ng/mL), IL-3 (30 ng/mL), SCF (100 ng/mL), IL-6 (10 ng/mL), IL-11 (5 ng/mL), IGF-1 (25 ng/mL), EPO (2 U/mL), VEGF (5 ng/mL), bFGF (5 ng/mL), BMP4 (10 ng/mL), FLT3L (10 ng/mL), and SHH (20 ng/mL). Aggregates were spotted onto Matrigel-coated plasticware and were cultured for additional 3 or 9 days for WNTi and WNTd cultures, respectively. Cultures were maintained in a 37° C. incubator, in a 5% CO2/5% 02/90% N2 environment. Hemato-endothelial cultures were subsequently harvested by trypsinization, and assessed for hematopoietic potential by Methocult in a 37° C. incubator, in a 5% CO2/air environment. […]"}, "[2]": {"tested_on": "WNTi CD235a+ mesoderm", "experiment": "Extra-embryonic-like HE specification from isolated day 3 WNTi CD235a+ mesoderm", "description": "(§1) The hESC lines H1 and H9, and human iPSC1 were maintained on irradiated mouse embryonic fibroblasts in hESC media as described previously (Sturgeon, C. M., et al. Nat Biotechnol 32, 554-561, (2014); Thomson, J. A. et al. Science 282, 1145-1147 (1998); Dege, C. et al., J Vis Exp, (2017)). For differentiation, hPSC were cultured on Matrigel-coated plasticware (BD Biosciences, Bedford, MA) for 24 hours, followed by embryoid body (EB) generation, as described previously (Kennedy, M. et al. Cell Rep 2, 1722-1735, (2012); Dege, C. et al. J Vis Exp, (2017); Ditadi, A. et al. Methods 101, 65-72, (2016)). Briefly, hPSCs were dissociated with brief trypsin-EDTA (0.05%) treatment, followed by scraping. Embryoid body (EB) aggregates were resuspended in SFD media34 supplemented with L-glutamine (2 mM), ascorbic acid (1 mM), monothioglycerol (MTG, 4×10^−4 M; Sigma), transferrin (150 μg/mL), and BMP-4 (10 ng/mL). 24 hours later, bFGF (5 ng/mL) was added. […]\n(§2) CD34+CD43^neg hemogenic endothelium was isolated by FACS and allowed to undergo the endothelial-to-hematopoietic transition as described previously (Ditadi, A. et al., Nat Cell Biol 17, 580-591, (2015); Ditadi, A. et al., Methods 101, 65-72, (2016)). […] Hemato-endothelial cultures were subsequently harvested by trypsinization, and assessed for hematopoietic potential by Methocult in a 37° C. incubator, in a 5% CO2/air environment. […]"}, "[3]": {"tested_on": "WNTd KDR+ CXCR4neg mesoderm", "experiment": "Definitive hematopoietic development / HE specification from isolated day 3 WNTd KDR+ CXCR4neg mesoderm", "description": "The hESC lines H1 and H9, and human iPSC1 were maintained on irradiated mouse embryonic fibroblasts in hESC media as described previously (Sturgeon, C. M., et al. Nat Biotechnol 32, 554-561, (2014); Thomson, J. A. et al. Science 282, 1145-1147 (1998); Dege, C. et al., J Vis Exp, (2017)). For differentiation, hPSC were cultured on Matrigel-coated plasticware (BD Biosciences, Bedford, MA) for 24 hours, followed by embryoid body (EB) generation, as described previously (Kennedy, M. et al. Cell Rep 2, 1722-1735, (2012); Dege, C. et al. J Vis Exp, (2017); Ditadi, A. et al. Methods 101, 65-72, (2016)). Briefly, hPSCs were dissociated with brief trypsin-EDTA (0.05%) treatment, followed by scraping. Embryoid body (EB) aggregates were resuspended in SFD media34 supplemented with L-glutamine (2 mM), ascorbic acid (1 mM), monothioglycerol (MTG, 4×10^−4 M; Sigma), transferrin (150 μg/mL), and BMP-4 (10 ng/mL). 24 hours later, bFGF (5 ng/mL) was added. On the second day of differentiation, ACTIVIN A, SB-431542 (6 μM), CHIR99021 (3 μM), and/or IWP2 (3 μM) were added. On the third day, EBs were changed to StemPro-34 media supplemented as above, with bFGF (5 ng/mL) and VEGF (15 ng/mL) and treated with either 10 μM of the pan-ALDH inhibitor DEAB (4-Diethylaminobenzaldehyde, Sigma #D86256; “RA-independent”) or 5 μM retinol (ROH, Sigma #R7632; “RA-dependent”). On day 6, IL-6 (10 ng/mL), IGF-1 (25 ng/mL), IL-11 (5 ng/mL), SCF (50 ng/mL), EPO (2 U/mL final) with DEAB or ROH were added. HE was FACS-isolated for terminal assays on day 8 (DEAB) or day 10 (ROH). All differentiation cultures were maintained at 37° C. […]\nas §2"}, "[4]": {"tested_on": "HOXA genes", "experiment": "HOXA gene expression in CXCR4+ mesoderm-derived CD34+ cells", "conditions": "after ROH treatment of CXCR4+ mesoderm on day 3", "description": "Total RNA was prepared for whole-transcriptome sequencing using the Clontech SMARTer kit and was sequenced using an Illumina HiSeq 2500 with 1×50 single reads. Reads were aligned to hg19 using STAR and gene counts were obtained using Subread. TMM normalization and RPKM counts were calculated using EdgeR. Gene Set Enrichment Analysis (GSEA, version 4.0.1) and the Database for Annotation, Visualization, and Integrated discovery (DAVID, version 6.8) were used for differential expression analysis. Morpheus (software.broadinstitute.org/morpheus) was used to create heatmaps and perform hierarchical clustering (one minus the Pearson correlation with average linkage). Bulk RNA-seq comparison to scRNA-seq was performed using the SingleR package (version 1.0.1)(Aran, D. et al., Nat Immunol 20, 163-172, (2019)) implemented in R (version 3.5.1). qRT-PCR was performed as previously described (Sturgeon, C. M., et al., Nat Biotechnol 32, 554-561, (2014)). Briefly, total RNA was isolated with the RNAqueous RNA Isolation Kit (Ambion), followed by reverse transcription using random hexamers and Oligo (dT) with Superscript III Reverse Transcriptase (Invitrogen). Real-time quantitative PCR was performed on a StepOnePlus thermocycle (Applied Biosystems), using Power Green SYBR mix (Invitrogen). […] Gene expression was evaluated as DeltaCt relative to control (ACTB). […]"}, "[5]": {"tested_on": "WNTd differentiation cultures", "experiment": "Hematopoietic potential of HE from bulk WNTd differentiation cultures treated on day 3 (erythro-myeloid CFC, BFU-E globin)", "conditions": "ROH on day 3 (RAd HE) compared with DEAB (RAi HE)", "description": "as §1, with “scraping.” for “scraping. Embryoid body (EB) aggregates were resuspended in SFD media34 supplemented with L-glutamine (2 mM), ascorbic acid (1 mM), monothioglycerol (MTG, 4×10^−4 M; Sigma), transferrin (150 μg/mL), and BMP-4 (10 ng/mL). 24 hours later, bFGF (5 ng/mL) was added.”\nCD34+CD43^neg hemogenic endothelium was isolated by FACS and allowed to undergo the endothelial-to-hematopoietic transition as described previously (Ditadi, A. et al., Nat Cell Biol 17, 580-591, (2015); Ditadi, A. et al., Methods 101, 65-72, (2016)). […] Hemato-endothelial cultures were subsequently harvested by trypsinization, and assessed for hematopoietic potential by Methocult in a 37° C. incubator, in a 5% CO2/air environment. The experiments were performed in triplicate and the mean (±standard deviation) of the […] calculated for each data set is reported. […]"}}, "note": "“Also recorded” adds a separate entry of the source."}
{"smiles": "CC1=C(/C=C/C(C)=C/C=C/C(C)=C/C(=O)O)C(C)(C)CCC1", "note": "[ATRA, all-trans-retinoic acid]", "values": [{"measurement": "specification of definitive HE", "setting": "[1]; 1 nM ATRA on isolated KDR+ CXCR4+ mesoderm, day 3 of differentiation", "value": "robust specification of definitive HE"}, {"measurement": "specification of HE", "setting": "[1]; ATRA concentrations lower than 1 nM and higher than 10 nM, isolated KDR+ CXCR4+ mesoderm", "value": "failed to specify HE"}, {"measurement": "ATRA concentration repressive to extra-embryonic-like HE specification", "setting": "[2]", "value": "> 1", "unit": "nM"}, {"measurement": "effect on definitive hematopoietic development", "setting": "[3]; 1-10 nM ATRA, WNTd KDR+ CXCR4neg mesoderm", "value": "no significant effect"}, {"measurement": "ATRA concentration repressive to HE specification", "setting": "[3]; WNTd KDR+ CXCR4neg mesoderm", "value": "> 100", "unit": "nM"}]}
{"smiles": "CCN(CC)c1ccc(C=O)cc1", "note": "[DEAB, 4-Diethylaminobenzaldehyde]", "values": [{"measurement": "hematopoietic potential of the CD34+ population obtained", "setting": "[1]; DEAB (ALDH inhibitor) added to KDR+ CXCR4+ mesoderm culture", "value": "completely lacked any hematopoietic potential"}, {"measurement": "impact on definitive hematopoietic specification", "setting": "[3]; DEAB added to KDR+ CXCR4neg mesoderm differentiation, any stage", "value": "gives rise to definitive hematopoietic progenitors; also recorded: no negative impact"}]}
{"smiles": "CC1=C(/C=C/C(C)=C/C=C/C(C)=C/CO)C(C)(C)CCC1", "note": "[ROH, retinol]", "values": [{"measurement": "HOXA gene expression", "setting": "[4]", "value": "elevated HOXA gene expression"}, {"measurement": "stage at which ROH treatment results in specification of HE", "setting": "[1]; ROH treatment on day 3, 4 or 5 of CXCR4+ mesoderm", "value": "on day 3 of differentiation, but not thereafter, resulted in the specification of HE"}, {"measurement": "hematopoietic potential of the CD34+ HE specified", "setting": "[1]", "value": "harbored definitive erythroid, myeloid, and lymphoid hematopoietic potential"}, {"measurement": "hematopoietic potential of the CD34+ HE specified", "setting": "[1]; listed as retinol", "value": "capable of erythro-myeloid-lymphoid multilineage hematopoiesis"}, {"measurement": "erythro-myeloid CFC potential of the resulting HE", "setting": "[5]", "value": "significantly more erythro-myeloid CFC potential than RAi HE"}, {"measurement": "fetal (HBG) globin expression of resultant BFU-E", "setting": "[5]", "value": "higher expression of fetal (HBG) globin"}]}
